Assay results as given in PubChem BioAssay (NCI).
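Dose response: 5 concentrations. Exposure: 48 h. Format: 96-well plates. Endpoint: linear interpolation; highest concentration if not reached. TGI marks complete inhibition of growth.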

Columns and labels:
Assay in all cases: inhibition of tumour cell growth, NCI panel, 48 h
786-0 renal = system: 786-0 renal
A498 renal = system: A498 renal
A549 NSCLC = system: A549 NSCLC
ACHN renal = system: ACHN renal
CAKI-1 renal = system: CAKI-1 renal
CCRF-CEM leukemia = system: CCRF-CEM leukemia
COLO 205 colon = system: COLO 205 colon
DLD-1 colon = system: DLD-1 colon
DMS 114 small cell lung = system: DMS 114 small cell lung
DMS 273 small cell lung = system: DMS 273 small cell lung
EKVX NSCLC = system: EKVX NSCLC
HCC-2998 colon = system: HCC-2998 colon
HCT-15 colon = system: HCT-15 colon
HL-60(TB) leukemia = system: HL-60(TB) leukemia
HOP-18 NSCLC = system: HOP-18 NSCLC
HOP-62 NSCLC = system: HOP-62 NSCLC
HT29 colon = system: HT29 colon
IGROV1 ovarian = system: IGROV1 ovarian
K-562 leukemia = system: K-562 leukemia
KM12 colon = system: KM12 colon
LOX IMVI melanoma = system: LOX IMVI melanoma
LXFL 529 NSCLC = system: LXFL 529 NSCLC
M14 melanoma = system: M14 melanoma
M19-MEL melanoma = system: M19-MEL melanoma
MALME-3M melanoma = system: MALME-3M melanoma
MOLT-4 leukemia = system: MOLT-4 leukemia
NCI-H226 lung = system: NCI-H226 lung
NCI-H23 lung = system: NCI-H23 lung
NCI-H522 lung = system: NCI-H522 lung
OVCAR-3 ovarian = system: OVCAR-3 ovarian
OVCAR-4 ovarian = system: OVCAR-4 ovarian
OVCAR-5 ovarian = system: OVCAR-5 ovarian
OVCAR-8 ovarian = system: OVCAR-8 ovarian
RPMI-8226 leukemia = system: RPMI-8226 leukemia
RXF 393 renal = system: RXF 393 renal
RXF-631 renal = system: RXF-631 renal
SF-295 CNS = system: SF-295 CNS
SF-539 CNS = system: SF-539 CNS
SK-MEL-2 melanoma = system: SK-MEL-2 melanoma
SK-MEL-5 melanoma = system: SK-MEL-5 melanoma
SK-OV-3 ovarian = system: SK-OV-3 ovarian
SN12C renal = system: SN12C renal
SNB-19 CNS = system: SNB-19 CNS
SNB-78 CNS = system: SNB-78 CNS
SW-620 colon = system: SW-620 colon
TK-10 renal = system: TK-10 renal
U251 CNS = system: U251 CNS
UACC-257 melanoma = system: UACC-257 melanoma
UACC-62 melanoma = system: UACC-62 melanoma
UO-31 renal = system: UO-31 renal
HCT-116 colon = system: HCT-116 colon
HOP-92 NSCLC = system: HOP-92 NSCLC
KM20L2 colon = system: KM20L2 colon
NCI-H460 lung = system: NCI-H460 lung
SF-268 CNS = system: SF-268 CNS
SK-MEL-28 melanoma = system: SK-MEL-28 melanoma
SNB-75 CNS = system: SNB-75 CNS
XF 498 CNS = system: XF 498 CNS
SR leukemia = system: SR leukemia

Measured: TGI

CCOC(=O)c1ccc(N=Nc2ccc(N(CCC#N)CCC#N)cc2C)cc1
not listed: HCT-116 colon | HOP-92 NSCLC | KM20L2 colon | NCI-H460 lung | SF-268 CNS | SK-MEL-28 melanoma | SNB-75 CNS | XF 498 CNS | SR leukemia
> 100 µM: all other assays above

CCOC(=O)C1=C(NC)OCC1=O
not listed: DLD-1 colon | HOP-18 NSCLC | MOLT-4 leukemia | SR leukemia
> 100 µM: all other assays above

O=C1N[C@@H]2CCCC[C@@H]2C12CCCCC2
not listed: CAKI-1 renal | COLO 205 colon | DMS 114 small cell lung | DMS 273 small cell lung | HCT-15 colon | NCI-H522 lung | SK-MEL-2 melanoma | SK-MEL-5 melanoma | HOP-92 NSCLC
> 100 µM: all other assays above
